We go through 6 compounds from the NIST ThermoML archive (doi:10.1016/j.fluid.2005.03.016).

Where “and” joins values, the source holds several entries; their conditions need not be identical. Identical values can stand only once. ± gives the expanded uncertainty stated by the source.

The conditions of the data set: Liquid, Closed cell (Static) method.

Consider `CCO` [ethanol], for which the “vapor or sublimation pressure” value (313.07 K) came out at 17.77 ± 0.41 kPa.
`CO` [methanol]: the “vapor or sublimation pressure” value (313.07 K) is reported as 35.27 ± 0.43 kPa.
As for `CC(C)C` [2-methylpropane], the “vapor or sublimation pressure” value by setting is: (313.06 K) 529.65 ± 2.3 kPa; (313.08 K) 530.05 ± 2.4 kPa and 529.95 ± 2.4 kPa; (313.1 K) 529.95 ± 2.4 kPa; (313.12 K) 530.75 ± 2.3 kPa.
With `CC(C)O` [propan-2-ol], the “vapor or sublimation pressure” value (313.11 K) is given as 13.77 ± 0.41 kPa.
In the case of `CCC(C)O` (centres undefined) [butan-2-ol], the “vapor or sublimation pressure” value (313.1 K) came to 5.97 ± 0.4 kPa.
For the compound `CC(C)(C)O` [2-methylpropan-2-ol], where the note is “313.08 K”, the “vapor or sublimation pressure” value is on record as 13.77 ± 0.41 kPa.

Usually vapor or sublimation pressure stands for the pressure of vapour in equilibrium with the condensed phase.
